Reference: US20140024683A1, “CHLORIDE CHANNEL AND CHLORIDE TRANSPORTER MODULATORS FOR THERAPY IN SMOOTH MUSCLE DISEASES” (priority 2011, published 2014)

Assays:
[1] = tested on: guinea pig tracheal rings; experiment: Ex vivo airway smooth muscle force, prevention or relaxation of a contraction (Example 5); conditions: solo therapy; vs vehicle
Procedure: The chloride channel blocker NPPB and the chloride transporter blocker bumetanide were evaluated for their ability to prevent an initial contraction (n=5) (FIG. 23A) or to relax an existing contraction (n=6) (FIG. 23B).
As a proof of concept for chloride channel blockade in general, another chloride channel blocker, 5-nitro-2-(3-phenylpropylamino)-benzoic acid (NPPB) was used in an ex vivo guinea pig airway smooth muscle model.

[2] = tested on: guinea pig tracheal rings; experiment: Attenuation of the initiation of an acetylcholine contraction by pretreatment, guinea pig tracheal rings; conditions: pretreatment with single agent alone
Procedure: Animal protocols were approved by the Columbia University Animal Care and Use Committee. Male Hartley guinea pigs weighing approximately 400 g were anesthetized with intraperitoneal injection of sodium pentobarbital (100 mg/kg). Trachea were removed and transferred to ice cold Krebs-Henseleit (KH) buffer of the following composition (in mM): NaCl 118, KCl 5.6, CaCl2 0.5, MgSO4 0.24, NaH2PO4 1.3, NaHCO3 25, glucose 5.6, pH 7.4. Epithelial-denuded tracheal rings were prepared using a dissecting microscope. Epithelium was removed by gently passing cotton fibers through the lumen of the tracheal rings. The rings were suspended in 4 mL-water jacketed organ baths (37° C.: Radnoti Glass Technology, Monrovia, Calif.) and connected to a Grass FT03 force transducer (Grass Telefactor, West Warwick, R.I.) using silk sutures. The transducers were coupled to the computer with BioPac hardware and data was collected using Acqknowledge 7.3.3 software (BioPac Systems, Goleta, Calif.). KH buffer was bubbled with a gas mixture of 95% oxygen and 5% carbon dioxide and buffer was exchanged every 15 minutes for 1 hour during equilibration of tracheal rings at 1 g resting tension. […].
Compounds 1 and 13 were tested for their abilities to attenuate the initiation phase of an acetylcholine contraction, as acetylcholine is a natural bronchoconstrictor and prevention of contraction would have clinical utility. […]

[3] = tested on: human airway smooth muscle; experiment: Relaxation of acetylcholine contraction in human airway smooth muscle strips; conditions: 10 μM bumetanide alone
Procedure: Studies using de-identified human tissue were reviewed by the Columbia University Institutional Review Board and deemed not human subjects research. Tissues were obtained from healthy, normal organ donor discarded surgical waste subsequent to lung transplant surgery. Tissues were collected after transplant and placed in DMEM media (GIBCO) and bubbled overnight in 5% carbon dioxide and 95% oxygen at 4° C. The following morning, the smooth muscle tissue was carefully dissected under a dissecting microscope and the epithelium removed. The strips were anchored in the organ bath as described above using KH buffer of the same composition. The strips were allowed to equilibrate for 1 hour with buffer exchanges every 15 minutes and were treated with 10^−6 M tetrodotoxin, 10^−5 M pyrilamine, and 10^−5
M MK571. Strips were contracted with an EC50 dose of acetylcholine (Ach)
This experiment was then repeated with human airway smooth muscle to investigate clinical relevance as a model of bronchospasm in humans.

[4] = tested on: human airway smooth muscle cells; experiment: FLIPR potentiometric dye membrane potential assay (Examples 9, 12); type: cell-based; conditions: 100 μM
Procedure: To determine whether blockade of CaCCs or NKCCs induce membrane potential changes in cultured human airway smooth muscle cells, the FLIPR in vitro fluorescent dye assay (Molecular Devices) was used as described by Wafford et al. (2009). Briefly, human airway smooth muscle cells were grown to 100% confluence in 96-well black-walled plates and were washed with warmed (37° C.) normal-chloride buffer [consisting of (in mM) 130 sodium chloride, 2 CaCl2, 1 MgCl2, 10 D-glucose, and 10 HEPES, pH 7.4] four times. A stock solution (100% dye) of FLIPR blue dye (Molecular Devices) was prepared by reconstitution of 1 vial (125 mg) with 100 ml of the normal-chloride buffer (assay buffer). A 50% working stock was prepared by further diluting the reconstituted blue dye 1:1 with assay buffer and was used to load cells (90 μl/well) over 20 minutes at 37° C. All reagents were dissolved in assay buffer. Baseline fluorescence was measured for 3 minutes prior to the first control additions (assay buffer). […] The fluorescence produced by membrane potential change following solution additions was quantified after subtracting changes induced by assay buffer alone.

[5] = tested on: human airway smooth muscle cells; experiment: Whole cell current clamp recording of membrane potential; type: cell-based
Procedure: Induced electrophysiological changes in membrane potential and current were measured using traditional whole cell patch clamp methods. Immortalized human airway smooth muscle cells were grown to confluence on collagen-treated T25 flasks. Collagenase type IV in SmBM2 medium (Lonza, Walkersville, Md.) was used to release cells adherent to the collagen matrix in the flask. Medium with cells in suspension was then harvested in a 10-ml conical tube and centrifuged at 300×g. Supernatant was removed, and the pellet was resuspended in SmBM2 medium and transferred into collagen-treated glass bottom 1-cm Petri dishes at about 10% confluence. Each dish was then incubated at 37° C. and 5% CO2 for 1-4 hours for reattachment of cells to glass-bottom Petri dishes.
Glass-bottom dishes served as a disposable recording chamber. ALA VM-8, an 8-chamber pressure-driven drug application system, was used in a still bath of extracellular salt solution. Whole-cell intracellular voltage recordings under current clamp conditions were performed with a 2-kHz Bessel filter, recording at 10 kHz using an Axopatch 200b amplifier (Axon Instruments, Foster City, Calif., USA). Electrodes were pulled using a P-97 micropipette puller from 1.5-mm OD borosilicate capillary glass (Sutter Instruments, Novato, Calif., USA). Glass electrode resistances ranged from 5 to 10 MO with intracellular solution. Whole-cell intracellular current recordings under voltage-clamp conditions were performed with a 2-kHz Bessel filter, recording at 10 kHz using an Axopatch 200b amplifier. For current measurements (FIG. 11) intracellular solutions consisted of (in mM) 140 TEA-Cl, 5 MgATP, 5 EGTA, 1 MgCl2, 10 HEPES, and 5 CaCl2 (pH 7.2). Extracellular solution consisted of (in mM) 134 NaCl, 1.4 KCl, 10 HEPES, 1 MgCl2, 1.8 CaCl2, and 10 glucose (pH 7.4). This induced the classic spontaneously transient inward currents (STICs) and spontaneously transient outward currents (STOCs) well described in this cell type. STOCs are believed to represent activation of calcium activated potassium (KCa) channels while STICs are believed to represent activation of CaCCs. TEA-Cl was included in the buffer to enhance STICs which were then recorded during the addition of 100 μM niflumic acid. When recording TEA- and niflumic acid-induced responses on membrane potential (ΔmV), the intracellular solutions contained (in mM) 140 KCl, 5 MgATP, 5 EGTA, 1 MgCl2, 10 HEPES, and 5 CaCl2 (pH 7.2), and the extracellular solutions consisted of (in mM) 134 NaCl, 5 MgATP, 5 EGTA, 1 MgCl2, 10 HEPES, and 5 CaCl2 (pH 7.2). All recordings were analyzed on Clampfit 8.0 software (Molecular Devices).

SMILES | relaxation of an existing contraction [1] | attenuation of the initiation of an acetylcholine contraction [2] | relaxation of acetylcholine contraction [3] | membrane potential change (FLIPR) [4] | membrane potential change (FLIPR) ([4]; listed as NFA) | membrane potential (whole cell current clamp) ([5]; 100 μM niflumic acid) | membrane potential (whole cell current clamp) after depolarization ([5]; following depolarization with TEA chloride)
CCCCNc1cc(C(=O)O)cc(S(N)(=O)=O)c1Oc1ccccc1 [bumetanide] | effective in relaxing an existing contraction | failed to significantly attenuate a contraction | failed to relax an acetylcholine contraction | – | – | – | –
O=C(O)c1cccnc1Nc1cccc(C(F)(F)F)c1 [niflumic acid] | – | – | – | hyperpolarized the cell membrane | hyperpolarizes the airway smooth muscle cell plasma membrane | hyperpolarizes the plasma membrane | reverses membrane potential
